# Assay results as given in US7767659B2, “Synthesis of naturally occurring ecteinascidins and related compounds” (Pharma Mar, S.A., priority 2002, dated 2010).
# Where two headings read alike, the source gives them in different places.
# Legend:
# HeLa = test: Inhibition of cells growth by colorimetric assay (SRB); settings: Homo sapiens, HeLa, 48 h; for GI50: read-out: HELA GI50; for CC50: read-out: HELA LC50; for IC (TGI): read-out: HELA TGI
# Method in brief: (§1)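 Colorimetric SRB read (490 nm) on triplicate wells after 48 h at 37 °C, 5% CO2. Dose range 10 to 10^−8 μg/ml; 5×10^3 cells/well pre-attached 18 h.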
# SK-BR-3 = test: as above; settings: Homo sapiens, SK-BR-3, 48 h; for GI50: read-out: SK-BR3 GI50; for CC50: read-out: SK-BR3 LC50; for IC (TGI): read-out: SK-BR3 TGI
# Method in brief: as §1
# LNCaP = test: as above; settings: Homo sapiens, LNCaP, 48 h
# Method in brief: as §1
# DU-145 = test: as above; settings: Homo sapiens, DU-145, 48 h
# Method in brief: as §1
# LoVo-Dox = test: as above; settings: Homo sapiens, 48 h; for GI50: read-out: LOVO-DOX GI50; for CC50: read-out: LOVO-DOX LC50; for IC (TGI): read-out: LOVO-DOX TGI
# Method in brief: as §1
# SK-MEL-28 = test: as above; settings: Homo sapiens, SK-MEL-28, 48 h
# Method in brief: as §1
# PANC-1 = test: as above; settings: Homo sapiens, PANC-1, 48 h; for GI50: read-out: PANC-1 GI50; for CC50: read-out: PANC-1 LC50; for IC (TGI): read-out: PANC-1 TGI
# Method in brief: as §1
# IGROV-1 = test: as above; settings: Homo sapiens, IGROV-1, 48 h; for GI50: read-out: IGROV GI50; for CC50: read-out: IGROV LC50; for IC (TGI): read-out: IGROV TGI
# Method in brief: as §1
# IGROV-ET = test: as above; settings: Homo sapiens, 48 h; for GI50: read-out: IGROV-ET GI50; for CC50: read-out: IGROV-ET LC50; for IC (TGI): read-out: IGROV-ET TGI
# Method in brief: as §1
# HeLa-APL = test: as above; settings: Homo sapiens, 48 h; for GI50: read-out: HELA-APL GI50; for CC50: read-out: HELA-APL LC50; for IC (TGI): read-out: HELA-APL TGI
# Method in brief: as §1
# K-562 = test: as above; settings: Homo sapiens, K562, 48 h; for GI50: read-out: K562 GI50; for CC50: read-out: K562 LC50; for IC (TGI): read-out: K562 TGI
# Method in brief: as §1
# A-549 = test: cells; settings: Homo sapiens, A549, 48 h
# Method in brief: as §1
# HT-29 = test: cells; settings: Homo sapiens, HT-29, 48 h
# Method in brief: as §1
# LoVo = test: cells; settings: Homo sapiens, LoVo, 48 h; for GI50: read-out: LOVO GI50; for CC50: read-out: LOVO LC50; for IC (TGI): read-out: LOVO TGI
# Method in brief: as §1
compound,measurement,setting,value
COc1c(C)cc2c(c1OC(=O)/C=C/c1ccccc1)[C@H]1N[C@@H](C2)[C@H](O)N2C1[C@@H]1SCC(NC(=O)C(F)(F)F)C(=O)OC[C@H]2c2c3c(c(C)c(OC(C)=O)c21)OCO3 (stereo partly drawn) [compound 40],GI50,HeLa,0.111 µM
same,CC50,HeLa,0.661 µM
same,IC (TGI),HeLa,0.276 µM
same,GI50,SK-BR-3,0.0426 µM
same,CC50,SK-BR-3,0.524 µM
same,IC (TGI),SK-BR-3,0.0976 µM
same,GI50,LNCaP; read-out: LNCAP GI50,0.0481 µM
same,CC50,LNCaP; read-out: LNCAP LC50,0.509 µM
same,IC (TGI),LNCaP; read-out: LNCAP TGI,0.162 µM
same,GI50,DU-145; read-out: DU145 GI50,5.63 µM
same,CC50,DU-145; read-out: DU145 LC50,1.63 µM
same,IC (TGI),DU-145; read-out: DU145 TGI,0.16 µM
same,GI50,LoVo-Dox,0.354 µM
same,CC50,LoVo-Dox,2.79 µM
same,IC (TGI),LoVo-Dox,0.81 µM
same,GI50,SK-MEL-28; read-out: MEL-28 GI50,0.162 µM
same,CC50,SK-MEL-28; read-out: MEL-28 LC50,0.688 µM
same,IC (TGI),SK-MEL-28; read-out: MEL-28 TGI,0.334 µM
same,GI50,PANC-1,0.321 µM
same,CC50,PANC-1,2.57 µM
same,IC (TGI),PANC-1,0.747 µM
same,GI50,IGROV-1,0.0913 µM
same,CC50,IGROV-1,1.28 µM
same,IC (TGI),IGROV-1,0.317 µM
same,GI50,IGROV-ET,0.289 µM
same,CC50,IGROV-ET,0.98 µM
same,IC (TGI),IGROV-ET,0.533 µM
same,GI50,HeLa-APL,0.153 µM
same,CC50,HeLa-APL,0.775 µM
same,IC (TGI),HeLa-APL,0.344 µM
same,GI50,K-562,0.0414 µM
same,CC50,K-562,0.776 µM
same,IC (TGI),K-562,0.131 µM
same,GI50,A-549; read-out: A549 GI50,0.195 µM
same,CC50,A-549; read-out: A549 LC50,1.03 µM
same,IC (TGI),A-549; read-out: A549 TGI,0.447 µM
same,GI50,HT-29; read-out: HT29 GI50,0.337 µM
same,CC50,HT-29; read-out: HT29 LC50,3.84 µM
same,IC (TGI),HT-29; read-out: HT29 TGI,1.05 µM
same,GI50,LoVo,0.213 µM
same,CC50,LoVo,1.68 µM
same,IC (TGI),LoVo,0.552 µM
CCCCCCCCCCCCCCCC(=O)NC1CS[C@@H]2c3c(OC(C)=O)c(C)c4c(c3[C@H](COC1=O)N1C2[C@@H]2N[C@@H](Cc3cc(C)c(OC)c(O)c32)[C@@H]1O)OCO4 (stereo partly drawn) [compound 38],GI50,HeLa,0.317 µM
same,CC50,HeLa,0.935 µM
same,IC (TGI),HeLa,0.545 µM
same,GI50,SK-BR-3,0.194 µM
same,CC50,SK-BR-3,1.07 µM
same,IC (TGI),SK-BR-3,0.457 µM
same,GI50,LNCaP; read-out: GI50 LNCAP,0.338 µM
same,CC50,LNCaP; read-out: LC50 LNCAP,0.796 µM
same,IC (TGI),LNCaP; read-out: TGI LNCAP,0.518 µM
same,GI50,DU-145; read-out: GI50 DU145,0.286 µM
same,CC50,DU-145; read-out: LC50 DU145,1.11 µM
same,IC (TGI),DU-145; read-out: TGI DU145,0.564 µM
same,GI50,LoVo-Dox,1.54 µM
same,CC50,LoVo-Dox,6.15 µM
same,IC (TGI),LoVo-Dox,3.08 µM
same,GI50,SK-MEL-28; read-out: GI50 MEL-28,0.272 µM
same,CC50,SK-MEL-28; read-out: LC50 MEL-28,0.86 µM
same,IC (TGI),SK-MEL-28; read-out: TGI MEL-28,0.483 µM
same,GI50,PANC-1,0.616 µM
same,CC50,PANC-1,4.5 µM
same,IC (TGI),PANC-1,1.38 µM
same,GI50,IGROV-1,0.381 µM
same,CC50,IGROV-1,4.18 µM
same,IC (TGI),IGROV-1,0.786 µM
same,GI50,IGROV-ET,0.365 µM
same,CC50,IGROV-ET,1.48 µM
same,IC (TGI),IGROV-ET,0.675 µM
same,GI50,HeLa-APL,0.295 µM
same,CC50,HeLa-APL,1.02 µM
same,IC (TGI),HeLa-APL,0.549 µM
same,GI50,K-562,0.193 µM
same,CC50,K-562,1.54 µM
same,IC (TGI),K-562,0.51 µM
same,GI50,A-549; read-out: GI50 A549,0.473 µM
same,CC50,A-549; read-out: LC50 A549,4.71 µM
same,IC (TGI),A-549; read-out: TGI A549,1.42 µM
same,GI50,HT-29; read-out: GI50 HT29,0.653 µM
same,CC50,HT-29; read-out: LC50 HT29,4.73 µM
same,IC (TGI),HT-29; read-out: TGI HT29,1.67 µM
same,GI50,LoVo,0.358 µM
same,CC50,LoVo,2.51 µM
same,IC (TGI),LoVo,0.793 µM
